# “Also recorded” adds a separate entry of the source.
# Experiments:
# mice [1] = assay: Fear reconsolidation behavioral study; assay type: in vivo; settings: 2 mg/kg immediately before and 30 min after each of 4 dosed cue-recall sessions, versus DMSO
# Description: 3 CS-US pairings were performed: tone is 30 seconds long co-terminating with 2 second, 1 mA shock. No drug or vehicle was administered.
# Subsequent to the acquisition, and following the schedule provided, above, recall and reconsolidation sessions ensued. The cage was altered in context (floor board, walls, vanilla scent). The same paradigm as acquisition was used for reconsolidation and recall exposures but no shock was delivered. The following procedure was followed: (1) 2 min habituation to box; (2) 30 sec tones; (3) 1 min it is.
# Injections of ADG-205c or DMSO at dosage of 2 mg/kg are administered at the following time points: Immediately before reconsolidation/recall; and then 30 minutes following reconsolidation/recall.
# mice [2] = assay: Object-location memory paradigm; assay type: in vivo; settings: recall phase, versus DMSO injected
# Description: FIG. 29 depicts a graph showing the time spent interacting with an individual object relative to the total time spent interacting with all objects.
# To assess hippocampus-dependent spatial memory, an object-location memory paradigm is used. Animals explore three different objects during training, and long-term memory is tested by re-exposure 24 hours later with one object moved to a different location. In training, control and inhibitor treated mice show no difference in exploration. During memory retrieval, control mice show increased exploration of the object that had been moved. By contrast, mice treated with an ACSS2 inhibitor are impaired in spatial object memory and display a lower discrimination index.
# The conditions were blind as it relates to the injection (DMSO versus ADG-205c) and the locations of objects (those in the same location versus novel location). An online stopwatch interface was used that allowed use 3 simultaneous timer, one for each object. Each timer was stopped individually as the mouse interacted with a given object. […] Some mice remained stationary for substantial amounts of time relative to the others—some appearing apprehensive huddled in a corner, some spending time grooming.
# [3] = tested on: primary hippocampal neurons; assay: RNA-seq, acetate-induced transcription in primary hippocampal neurons; assay type: cell-based, mouse
# Description: Alcohol and acetate have pleiotropic effects on brain circuitry and metabolism. Utilizing isolated mouse primary hippocampal neurons, the transcriptional response to supraphysiological levels of acetate (cells were cultured for one week after isolation and subsequently treated with 5 mM acetate for 24 hours) that mimics exogenous acetate influx during alcohol intake was investigated. Further, to determine the specific role of ACSS2 in transcriptional responses to acetate, a highly specific small molecule inhibitor of ACSS2 (ACSS2i ADG-205: C20H18N4O2S2, FIG. 15A) was employed.
structure (smiles),measurement,setting,value
"COCCNC(=O)Nc1ccc2nc(-c3cccs3)c(-c3cccs3)nc2c1 [ADG-205c, 1-(2,3-di(thiophen-2-yl)quinoxalin-6-yl)-3-(2-methoxyethyl)urea]",Fear response (freezing) after reconsolidation sessions,mice [1],observable reduced fear response
same,Preference for object moved to novel location (time interacting with object relative to all objects),mice [2],very little preference for one object
same,Number of the 3613 acetate-induced genes that fail to be upregulated in the presence of inhibitor,"[3]; 5 mM acetate, 24 hours, RNA-seq",2107 genes
same,Slc17a7 induction upon acetate treatment,"[3]; acetate, ACSS2 inhibited",induction was diminished
same,Acetate induction of ACSS2 target genes with alcohol-induced H3K9ac,"[3]; hippocampal neurons ex vivo, acetate",blocks this gene induction
same,Acetate induction of ACSS2 target genes with alcohol-induced H3K27ac,"[3]; hippocampal neurons ex vivo, acetate, listed as ACSS2i",failed to be induced; also recorded: blocks this gene induction
same,Regulation of acetate-induced genes by inhibitor in the absence of acetate,[3]; no acetate,not regulated
